ChEMBL document CHEMBL1135928, “Binding mode analysis of 3-(4-benzoyl-1-methyl-1H-2-pyrrolyl)-N-hydroxy-2-propenamide: a new synthetic histone deacetylase inhibitor inducing histone hyperacetylation, growth inhibition, and terminal cell differentiation” (J Med Chem, 2002)

How the values were obtained:
Histone deacetylase 1 [1] = molecular target: T1, Histone deacetylase 1 (Mus musculus, UniProt O09106); experiment: In vitro for anti-HDAC1 (Histone deacetylase 1) activity in mouse A20 cells; assay type: cell-based
Histone deacetylase 1 [2] = molecular target: T1, Histone deacetylase 1; experiment: Binding affinity towards HDAC1 (Histone deacetylase 1) in mouse A20 cells, expressed as binding constant (pKi); assay type: cell-based

T1 sequence (O09106 whole entry): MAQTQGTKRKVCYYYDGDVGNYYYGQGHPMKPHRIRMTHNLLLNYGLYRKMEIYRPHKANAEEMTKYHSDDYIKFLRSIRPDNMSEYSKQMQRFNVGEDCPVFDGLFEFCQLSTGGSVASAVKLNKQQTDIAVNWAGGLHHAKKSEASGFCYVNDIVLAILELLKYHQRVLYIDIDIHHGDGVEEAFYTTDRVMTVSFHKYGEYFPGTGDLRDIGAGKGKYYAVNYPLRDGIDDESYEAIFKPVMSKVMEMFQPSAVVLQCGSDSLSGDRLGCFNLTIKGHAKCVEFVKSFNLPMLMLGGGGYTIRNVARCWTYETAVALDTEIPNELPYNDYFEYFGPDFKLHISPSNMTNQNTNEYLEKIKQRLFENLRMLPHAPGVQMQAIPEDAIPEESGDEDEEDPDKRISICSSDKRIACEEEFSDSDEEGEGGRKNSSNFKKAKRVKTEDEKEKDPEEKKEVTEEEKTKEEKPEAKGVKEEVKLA

Cc1ccc(C(=O)c2cc(/C=C/C(=O)NO)n(C)c2)cc1
IC50 (Histone deacetylase 1 [1]): 4.5 µM | Ki (Histone deacetylase 1 [2]): 2.69 µM

CN(C)c1ccc(C(=O)c2cc(/C=C/C(=O)NO)n(C)c2)cc1
IC50 (Histone deacetylase 1 [1]): 4.2 µM | Ki (Histone deacetylase 1 [2]): 2.51 µM

Cn1cc(C(=O)c2ccccc2)cc1/C=C/C(=O)NO
IC50 (Histone deacetylase 1 [1]): 4.9 µM | Ki (Histone deacetylase 1 [2]): 2.95 µM
